The source of these data is patent US7253258B2, “Proline rich acidic protein and uses thereof” (National University of Singapore, priority 2003, dated 2007).

Test [1] concerns PRAP expression in HT29 cells. As to the kind of experiment: Real time RT-PCR of PRAP expression in HT29 cells treated with TSA, DAC or both. The class given is cell-based, human. The conditions noted are these: HT29, 72 h, TSA (300 ng), DAC (1 μm); for PRAPcp-GAPDHcp: crossing point of PRAP normalized by GAPDH: untreated 12.63. Here is the method:
(§1) Sigma), trichostatin A (TSA, 300 nM; Sigma) or a combination of both drugs for 72 hours. For the combined treatment, cells were treated with 1 μM DAC for 24 h followed by the addition of 300 nM TSA for another 48 h. Total RNA was extracted using the […] (Qiagen). The experiment was performed in duplicates and the average result calculated. Primers for real-time PCR were designed using the LightCycler Probe Design Software, version 1.0 (Roche, France). […] Real-time PCR was performed on the LightCycler (Roche, France) using the LightCycler-RNA amplification Kit SYBR Green I (Roche, France). The specificity of the amplification was assessed by electrophoretic separation of the amplified products and melting curve analysis. […] The efficiencies of both amplifications were calculated according to the slope of the standard curves. Relative PRAP expression was quantified after normalisation with GAPDH.
In general terms: Quantitative PCR measures a nucleic acid by following its amplification.

The subject of test [2] is PRAP expression in HCT116 cells. In words: Real time RT-PCR of PRAP expression in HCT116 cells treated with TSA, DAC or both. The class given is cell-based, human. The conditions noted are these: HCT116, 72 h, TSA (300 ng), DAC (1 μm); for PRAPcp-GAPDHcp: crossing point of PRAP normalized by GAPDH: untreated 13.97. Here is the method:
as §1

Test [3] has as its system HeLa cells. As to the kind of experiment: Cell numbers after transfection (overexpression) in HeLa cells, haemocytometer count after Trypan Blue. It counts as cell-based, human. The conditions noted are these: 72 h after transfection. The protocol: The cDNA fragment was cloned into pcDNA 3.1. All plasmids were sequenced to confirm identity and exclude mutations. The plasmids were transfected into HepG2 and HeLa cells using Lipofectamine (Invitrogen), according to manufacturer's recommendations. Each experiment was performed in quadruplicates and repeated three times. After 72 h, the cells were harvested and counted by a haemocytometer after Trypan Blue staining. Whole cell extracts were prepared for Western blot analysis as described.

Test [4] relates to HeLa cells. Here is the method: (§2) Cells were subjected to selection in 1200 μg/ml G418 and the number of colonies scored manually at the end of 3 weeks.
Another test concerns HT29 cells. The conditions noted are these: HT29 stable clones, MTT, p<0.01. Here is the method: as §2
The colorimetric MTT (3-(4,5-dimethylthiazol-2yl)-2,5-diphenyl-tetrazolium bromide; Sigma) assay was used as a surrogate measure of cell number at various time points. The experiment was performed in replicates of six and repeated twice.

For test [5], the system named is PRAP gene expression in HT29 cells. As to the kind of experiment: Northern blot of PRAP gene expression in butyrate-treated HT29 cells. The conditions noted are these: HT29, 5 mM butyrate. It counts as cell-based, human. Here is the method:
The HT29, HCT116, HepG2 and HeLa cell lines were purchased from American Type Culture Collection (Manassas, Va.). HT29 and HCT116 cells were cultured in McCoy's 5A (Sigma Chemical Co., St. Louis, Mo.), HepG2 in DMEM and HeLa in RPMI, all supplemented with 10% fetal bovine serum (Life Technologies, Inc., Gaithersburg, Md.), at 37° C. in a 5% CO2 humidified atmosphere. Cells were treated with 5 mM sodium butyrate (final concentration in media; Life Technologies, Inc) or vehicle. Total RNA was prepared from the cells at the respective time points from three separate flasks.
In a separate experiment, total RNA from tissues and cell lines was prepared using the guanidinium thiocyanate method as previously described (MacDonald et al., 1987). 15 μg of RNA was separated by formaldehyde/agarose gel electrophoresis, transferred to nylon membrane (Qiabrane, Qiagen, Hilden, Germany), cross-linked (Stratalinker, Stratagene, La Jolla, Calif.), and hybridised to cDNA probes, as previously described (Wang et al., 1999). […] Relative mRNA levels were quantified by Typhoon phospho-imager (Amersham Bioscience, UK) and normalised against 18S levels. Normal/Tumour (N/T) ratios were obtained by dividing the normalised relative densitometric units of the normal mucosa by tumour.

Test [6] relates to PRAP expression in HT29 cells. In words: Western blot of PRAP expression in HT29 cells at different butyrate concentrations. It counts as cell-based, human. The text has this: Cells or tissues were extracted with RIPA buffer (1×PBS, 1% Nonidet P-40, 0.5% sodium deoxychelate and 0.1% SDS. Protease inhibitors: PMSF, aprotinin, pepstatin A and leupeptin were freshly added to the RIPA buffer at the point of usage). […] The secondary antibody was either HRP-conjugated anti-rabbit IgG (BioRad, Hercules, Calif., 1:10,000) or HRP-conjugated anti-mouse antibody (Santa Cruz Biotechnology, Santa Cruz, Calif., 1:20,000). The proteins were visualized using the SuperSignal® West Dura Extended (Pierce) chemiluminescent substrate and exposed to an autoradiograph film.
Background: A western blot detects proteins with antibodies after separation by electrophoresis.

Values joined by “and” are separate entries in the source; they are usually repeats but may differ in a detail not shown here. Equal values may be shown once.

Turning to `Nc1ncn([C@H]2C[C@H](O)[C@@H](CO)O2)c(=O)n1` [DAC, 5-aza-2′ deoxycytidine], in test [1], the “Fold of increase of PRAP expression relative to untreated HT29” value is 8.5 fold and the “PRAPcp-GAPDHcp: crossing point of PRAP normalized by GAPDH” value amounted to 9.37. For the same molecule, in test [2], the “PRAPcp-GAPDHcp: crossing point of PRAP normalized by GAPDH” value came to 13.8.
For Proline-rich acidic protein [PRAP], the “Reduction in cell numbers compared to vector-transfected controls” value with HeLa cells [3] is 55%. Also, the “Size of colonies compared to controls” value in the test on HeLa cells [4] (3 weeks selection in 1200 μg/ml G418) is reported as “reduction in the size”. In addition, the “Reduction in the number of colonies” value in the test with HeLa cells [4] (3 weeks selection in 1200 μg/ml G418, versus vector) stood at 50%. Further, in the test on HT29 cells, the “Rate of cell growth of stably transfected clones versus vector controls” value was “significantly lower rate of cell growth”.
`CC(/C=C/C(=O)NO)=C\[C@@H](C)C(=O)c1ccc(N(C)C)cc1` [TSA, trichostatin A]: in test [1], the “Fold of increase of PRAP expression relative to untreated HT29” value amounted to 8.4 fold and the “PRAPcp-GAPDHcp: crossing point of PRAP normalized by GAPDH” value came out at 9.38. For the same molecule, in test [2], the “Fold of increase of PRAP expression relative to untreated HCT116” value is 5.2 fold and 5.17 fold; the “PRAPcp-GAPDHcp: crossing point of PRAP normalized by GAPDH” value stood at 11.6.
In the case of `CCCC(=O)[O-].[Na+]` [butyrate, sodium butyrate], in test [5] (6 days after treatment), the “PRAP gene expression versus control non-treated cells” value was determined as 29 fold. Also, the “Increase of PRAP gene expression” value in test [5] (within 24 h) amounted to 20 fold. The “Butyrate concentration giving maximal PRAP expression” value in test [6] lay within 2 to 5 mM.

B1: PRAP/-SP: truncated PRAP without signal peptide, amino acid 21 to 151 (protein)
chain: VPAPKVPIKMQVKHWPSEQDPEKAWGARVVEPPEKDDQLVVLFPVQKPKLLTTEEKPRGQGRGPILPGTKAWMETEDTLGRVLSPEPDHDSLYHPPPEEDQGEERPRLWVMPNHQVLLGPEEDQDHIYHPQ
With B1, the “Reduction in cell numbers compared to vector-transfected controls” value with HeLa cells [3] is listed as “did not result in a reduction in cell numbers”.
